Experimental data published in patent publication US9359347B2, “Inhibitors of Akt/PKB with anti-tumor activity” (University of South Florida, priority 2007, dated 2016).
Values belong to the compound of their own block, whether it stands above or below them.

Key:
[1] = test system: Akt; experiment: Immunoblotting with anti-phospho-Akt-S473 antibody in OVCAR3 cells; format: cell-based, human; conditions: 3 hours, read-out: IC50, phosphorylation level of Akt (phospho-Akt-S473)
[2] = test system: PKA; experiment: Immunoblotting of PKA phosphorylation in OVCAR3 cells; format: cell-based, human
[3] = test system: OVCAR3; experiment: Cell proliferation MTT assay, OVCAR3; format: cell-based, human; conditions: OVCAR3, 24 hours
Description: (§1) The blots were reprobed with anti-actin antibody (bottom panel). FIGS. 4B and 4C are cell proliferation assays in which indicated cell lines were treated with different doses of API-1 for 24 hours and then analyzed with MTT assay. FIGS. 4D-4G show an apoptosis analysis in which cells were treated with API-1 and stained with annexin V and PI and analyzed by FACScan.
(§2) In vitro kinase was performed as previously described (Jiang et al. 2000). Cell survival was assayed with MTT (Sigma). Apoptosis was detected with annexin V (BD Biosciences), which was performed according to manufacture's instruction. Recombinant Akt and PDK1 were purchased from Upstate Biotechnology Inc.
(§3) Akt is a major pro-growth and pro-survival pathway.

[4] = test system: OVCA8; experiment: Cell proliferation MTT assay, OVCA8; format: cell-based, human; conditions: OVCA8, 24 hours
Description: as §1, §2, §3

[5] = test system: MDA-MB-468; experiment: Cell proliferation MTT assay, MDA-MB-468; format: cell-based, human; conditions: MDA-MB-468, 24 hours
Description: as §1, §2, §3

[6] = test system: MCF7; experiment: Cell proliferation MTT assay, MCF7; format: cell-based, human; conditions: MCF7, 24 hours
Description: as §1, §2, §3

[7] = test system: OVCAR5; experiment: Cell proliferation MTT assay, OVCAR5; format: cell-based, human; conditions: OVCAR5, 24 hours
Description: as §1, §2, §3

[8] = test system: MDA-MB-435s cells; experiment: Cell proliferation MTT assay, MDA-MB-435s; format: cell-based, human; conditions: 24 hours
Description: as §1, §2, §3

[9] = test system: OVACAR3; experiment: Apoptosis analysis (annexin V and PI, FACScan), OVACAR3; format: cell-based, human
Description: as §1, §2, §3

[10] = test system: MDA-MB-468; experiment: Apoptosis analysis (annexin V and PI, FACScan), MDA-MB-468; format: cell-based, human; conditions: MDA-MB-468, annexin V and PI
Description: as §1, §2, §3

[11] = test system: OVCAR3 tumors; experiment: Nude mouse tumor xenograft model, OVCAR3; format: in vivo, nude mice; conditions: 10 mg/kg/day i.p.
[12] = test system: PANC1 tumors; experiment: Nude mouse tumor xenograft model, PANC1; format: in vivo, nude mice; conditions: 10 mg/kg/day i.p.
[13] = Tolerability observations in xenograft mice; format: in vivo; conditions: 10 mg/kg/day, data not shown
Description: Tumor cells were harvested, resuspended in PBS, and injected subcutaneous (s.c.) into the right and left flanks (2×10^6 cells/flank) of 8-week-old female nude mice as reported previously (Sun et al. 1999). When tumors reached about 100-150 mm^3, animals were randomized and dosed intraperitoneal (i.p.) with vehicle or drug daily. Control animals received dimethylsulfoxide (DMSO) (20%) vehicle and treated animals were injected with API-1 (10 mg/kg/day) in 20% DMSO.
Because API-1 inhibits Akt signaling and induces apoptosis and cell growth arrest in cancer cells with elevated levels of Akt (FIGS. 4A-4G), it was reasoned that the growth of tumors with elevated levels of Akt should be more sensitive to API-1 than that of tumors with low levels of Akt in nude mice. To this end, Akt-overexpressing cells (OVCAR3 and PANC-1) were s.c. implanted into the left flank, and those cell lines that express low levels of Akt (OVCAR5 and COLO357) were s.c. implanted into the right flank of mice. When the tumors reached an average size of about 100-150 mm^3, the animals were randomized and treated i.p. with either vehicle or API-1 (10 mg/kg/day). As illustrated in FIGS. 5A-5J, OVCAR3 and PANC1 tumors treated with vehicle control continued to grow. API-1 inhibited OVCAR3 and PANC1 tumor growth by 70% and 50%, respectively (FIGS. 5C-5F and 5G-5J). In contrast, API-1 had little effect on the growth of OVCAR5 and COLO357 cells in nude mice (FIGS. 5A-5J). At dose 10 mg/kg/day, API-1 had no effects on blood glucose level, body weight, activity and food intake of mice (data not shown).

[14] = test system: Akt; experiment: Immunoblotting of Akt phosphorylation in treated tumor specimens; format: in vivo, nude mice; conditions: 10 mg/kg/day
[15] = biological target: T1, Akt (Homo sapiens, UniProt P31749); experiment: IGF-1 induced plasma membrane translocation of Akt in Myc-AKT1 transfected HeLa cells; format: cell-based; conditions: Myc-AKT1, 30 min prior to IGF1 for 15 minutes
T1 construct: expressed in transfected cells; host or cells: HeLa
T1 sequence (P31749 whole entry): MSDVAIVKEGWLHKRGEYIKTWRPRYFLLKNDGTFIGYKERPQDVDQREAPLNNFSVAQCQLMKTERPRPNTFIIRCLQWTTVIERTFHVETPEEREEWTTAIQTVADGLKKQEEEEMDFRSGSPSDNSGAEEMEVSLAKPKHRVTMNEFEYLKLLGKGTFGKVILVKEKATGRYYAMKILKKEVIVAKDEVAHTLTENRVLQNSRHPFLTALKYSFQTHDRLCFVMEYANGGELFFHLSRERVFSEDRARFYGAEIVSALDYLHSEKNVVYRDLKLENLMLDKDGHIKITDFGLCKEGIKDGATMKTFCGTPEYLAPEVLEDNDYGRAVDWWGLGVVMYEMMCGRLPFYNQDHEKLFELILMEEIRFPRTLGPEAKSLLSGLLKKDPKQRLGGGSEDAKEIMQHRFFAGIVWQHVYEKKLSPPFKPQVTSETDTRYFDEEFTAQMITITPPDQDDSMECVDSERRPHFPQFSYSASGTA
Description: HeLa cells were transfected on coverslips with Myc-AKT1, serum-starved overnight and then treated with (FIG. 6C) or without (FIG. 6B) AKT-SI1 for 30 min prior to stimulation with IGF1 for 15 minutes. Following fixation, cells were immuno-stained with the anti-Myc monoclonal antibody, followed by a FITC-conjugated secondary antibody to reveal the presence of the epitope-tagged protein in the cytosol or membrane (FIG. 6B). Cells without treatment with AKT-SI1 and IGF1 were used as control (FIG. 6A).

[16] = test system: Akt downstream targets; experiment: Phosphorylation of Akt downstream targets (FIG. 3C); format: cell-based
[17] = biological target: mTORC1 (Homo sapiens, UniProt P42345); experiment: Interference with mTORC1 complex (FIG. 3D)
[18] = biological target: mTORC2 (Homo sapiens, UniProt P42345); experiment: Interference with mTORC2 complex (FIG. 3D)
[19] = biological target: T2, wild-type Myc-AKT1 (Homo sapiens, UniProt P31749); conditions: wild-type Myc-AKT1 transfected HEK 293 cells
T2 sequence (P31749 whole entry): as above

[20] = biological target: T3, constitutively active Myc-AKT1-E17K (Homo sapiens, UniProt P31749, E17K); conditions: Myc-AKT1-E17K transfected HEK 293 cells
T3 sequence (P31749 whole entry E17K): as the sequence (P31749 whole entry) above, with E17K counted along it

[21] = biological target: T3, constitutively active Myc-AKT1-E17K; experiment: In vitro kinase assay of anti-Myc immunoprecipitates from Myc-AKT1-E17K transfected HEK293 cells; conditions: HEK293, Histone H2B substrate
[22] = biological target: T2, wild-type Myc-AKT1; experiment: In vitro kinase assay of anti-Myc immunoprecipitates from wild-type Myc-AKT1 transfected HEK293 cells; conditions: wild-type Myc-AKT1, HEK293, 30 min then EGF 15 min, Histone H2B substrate

- IC50 [1]: ~800 nM
Compound: NC(=O)c1cn(C2OC(CO)C(O)C2O)c2ncnc(N)c2c1=O (stereo not shown) [API-1]
- phosphorylation levels of PKA [2]: not inhibited
- inhibition of cell proliferation [3]: 50-70%
- inhibition of cell proliferation [4]: 50-70%
- inhibition of cell proliferation [5]: 50-70%
- inhibition of cell proliferation [6]: 50-70%
- inhibition of cell proliferation [7]: 10-30%
- inhibition of cell proliferation [8]: 10-30%
- induction of apoptosis [9]: 9 fold
- induction of apoptosis [10]: 4.6 fold
- inhibition of tumor growth [11]: 70%
- inhibition of tumor growth [12]: 50%
- activity [13]: no effects
- blood glucose level [13]: no effects
- body weight [13]: no effects
- food intake [13]: no effects
- reduction of phosphorylation levels of Akt in treated tumor samples [14]: about 70%

Compound: API-1
- IGF-1 induced plasma membrane translocation of Akt [15]: inhibits
- phosphorylation of Akt downstream targets [16]: inhibited
- interference with mTORC1 complex [17]: did not interfere
- interference with mTORC2 complex [18]: did not interfere
- phospho-Akt levels (S473) [19]: inhibit
- phospho-Akt levels (S473) [20]: inhibit
- inhibition of Akt kinase activity, compared with API-2/TCN [21]: more potent than API-2/TCN
- inhibition of Akt kinase activity, compared with API-2/TCN [22]: more potent than API-2/TCN
